Measured values from article PMC6315694, “Synthesis of Pseudellone Analogs and Characterization as Novel T-type Calcium Channel Blockers” (Marine Drugs, 2018).
Like-named read-outs stand apart in the source and are kept apart here.

How the values were obtained:
Assay type in all cases: cell-based
[1] = target: CaV3.2 (Homo sapiens, UniProt O95180); test: T-type calcium channel window current FLIPR assay, CaV3.2
Method: (§1) The human embryonic kidney 293 (HEK 293) cell lines (from Emmanuel Bourinet, Montpellier, France) stably expressing CaV3.2 or CaV3.3 were cultured under 5% carbon dioxide at 37 °C in Dulbecco’s Modified Eagle Medium (DMEM) Glutamax (Gibco, Life Technologies, Carlsbad, CA, USA) supplemented with 10% (v/v) fetal bovine serum (FBS), 100 U/mL penicillin, 100 μg/mL streptomycin (Gibco, Life Technologies), and 750 μg/mL geneticin (G418) (Gibco, Life Technologies). The Chinese Hamster Ovary (CHO) cell lines (Emmanuel Bourinet, Montpellier, France) expressing CaV3.1 were cultured under 5% carbon dioxide at 37 °C in Alpha Minimum Essential Media (MEM) Glutamax (Gibco, Life Technologies), supplemented with 10% (v/v) fetal bovine serum (FBS) and 300 μg/mL geneticin (G418) (Gibco, Life Technologies). The human neuroblastoma SH-SY5 Y cells (Victor Diaz, Goettingen, Germany) were cultured under 5% carbon dioxide at 37 °C in RPMI 1640 antibiotic-free medium (Invitrogen, Carlsbad, CA, USA), supplemented with 15% FBS and 2 mM GlutaMAX™ (Invitrogen). D-PBS (Gibco, Life Technologies) was used to wash the cells, and 0.25% Trypsin-EDTA (Gibco, Life Technologies) was used to detach cells from the flask surface. They were split in a ratio of 1:5 (ideally 1000 cells/cm^2) when they reached 70%–80% confluence (every 2–3 days). Transiently transfected CaV3.1HEK293 T cells were used in FLIPR Assays. HEK 293 T cells were cultured under 5% carbon dioxide at 37 °C in DMEM supplemented with 10% (v/v) FBS. D-PBS was used to wash the cells, and 0.25% Trypsin-EDTA was used to detach cells from the flask surface. The cells were split and seeded at 6 million cells per T175 flask, to reach 70%–80% confluence after 24 h. The next day, 12 μg DNA of human CaV3.1 was incubated in 900 μL serum-free DMEM with 36 μL FuGENE HD transfection reagent (Promega Corporation, Madison, WI, US) (1:3 DNA/Fugene ratio) for 20 min, and then the mixture was added into the cell flask slowly, drop by drop. After the transfection, the cells were cultured under 5% carbon dioxide at 37 °C for 24 h and then moved to a 28 °C incubator.
(§2) HEK 293 cells stably expressing CaV3.2 or CaV3.3 were seeded into 384-well black wall clear bottom plates (Corning, Lowell, MA, USA) at a density of 30,000 cells per well. Transiently transfected CaV3.1HEK293 T cells were seeded into 384-well black wall clear bottom plates at a density of 60,000 cells per well. Once the cells reached 90%–95% confluence after 24 h, the media were removed from the wells and replaced with 20 μL of 10% calcium 4 dye (Molecular Devices, Sunnyvale, CA, USA) in HBSS-HEPES (containing 5 mM KCl, 10 mM HEPES, 140 mM NaCl, 10 mM glucose, and 0.5 mM CaCl2, pH 7.4) with 0.1% bovine serum albumin (BSA). The cells were incubated for 30 min at 37 °C in the presence of 5% carbon dioxide. Each well on the reagent plates for the first addition contained 15 μL different concentrations of compounds dissolved in HBSS-HEPES containing 0.1% BSA and <0.1% DMSO and was incubated for 20 min after loading. Positive and negative controls contained 15 μL of HBSS-HEPES (0.1% BSA) alone. The plates were placed in the FLIPR^TETRA (Molecular Devices, Sunnyvale, CA, USA) programmed to measure maximum fluorescence intensity following a second addition of the agonist 5 mM CaCl2. The data acquisition parameters were adjusted as follows: Baseline fluorescence of 1500–2000 arbitrary fluorescence units (AFU), emission wavelength of 515–575 nm, and excitation wavelength of 470–495 nm. HBSS-HEPES (0.1% BSA) was used in the second addition as a negative control. One fluorescence reading was taken before the second addition. Then the fluorescence readings were recorded every two seconds for 300 s. Raw fluorescence readings in the form of relative light units were converted to response over baseline using ScreenWorks® (Molecular Devices, version 3.2.0.14) software.
(§3) Data were plotted and analyzed using GraphPad Prism v7.0 (GraphPad Software Inc., San Diego, CA, USA).

[2] = target: CaV3.3 (Homo sapiens, UniProt Q9P0X4); test: T-type calcium channel window current FLIPR assay, CaV3.3
Method: as §1, §2, §3

[3] = target: T1, human CaV3.1 (Homo sapiens, UniProt O43497); test: T-type calcium channel window current FLIPR assay, CaV3.1
T1 construct: expressed in transfected cells; host or cells: HEK 293T, transient transfection (FuGENE HD)
Method: as §1, §2, §3

CaV3.3, sequence (Q9P0X4 whole entry): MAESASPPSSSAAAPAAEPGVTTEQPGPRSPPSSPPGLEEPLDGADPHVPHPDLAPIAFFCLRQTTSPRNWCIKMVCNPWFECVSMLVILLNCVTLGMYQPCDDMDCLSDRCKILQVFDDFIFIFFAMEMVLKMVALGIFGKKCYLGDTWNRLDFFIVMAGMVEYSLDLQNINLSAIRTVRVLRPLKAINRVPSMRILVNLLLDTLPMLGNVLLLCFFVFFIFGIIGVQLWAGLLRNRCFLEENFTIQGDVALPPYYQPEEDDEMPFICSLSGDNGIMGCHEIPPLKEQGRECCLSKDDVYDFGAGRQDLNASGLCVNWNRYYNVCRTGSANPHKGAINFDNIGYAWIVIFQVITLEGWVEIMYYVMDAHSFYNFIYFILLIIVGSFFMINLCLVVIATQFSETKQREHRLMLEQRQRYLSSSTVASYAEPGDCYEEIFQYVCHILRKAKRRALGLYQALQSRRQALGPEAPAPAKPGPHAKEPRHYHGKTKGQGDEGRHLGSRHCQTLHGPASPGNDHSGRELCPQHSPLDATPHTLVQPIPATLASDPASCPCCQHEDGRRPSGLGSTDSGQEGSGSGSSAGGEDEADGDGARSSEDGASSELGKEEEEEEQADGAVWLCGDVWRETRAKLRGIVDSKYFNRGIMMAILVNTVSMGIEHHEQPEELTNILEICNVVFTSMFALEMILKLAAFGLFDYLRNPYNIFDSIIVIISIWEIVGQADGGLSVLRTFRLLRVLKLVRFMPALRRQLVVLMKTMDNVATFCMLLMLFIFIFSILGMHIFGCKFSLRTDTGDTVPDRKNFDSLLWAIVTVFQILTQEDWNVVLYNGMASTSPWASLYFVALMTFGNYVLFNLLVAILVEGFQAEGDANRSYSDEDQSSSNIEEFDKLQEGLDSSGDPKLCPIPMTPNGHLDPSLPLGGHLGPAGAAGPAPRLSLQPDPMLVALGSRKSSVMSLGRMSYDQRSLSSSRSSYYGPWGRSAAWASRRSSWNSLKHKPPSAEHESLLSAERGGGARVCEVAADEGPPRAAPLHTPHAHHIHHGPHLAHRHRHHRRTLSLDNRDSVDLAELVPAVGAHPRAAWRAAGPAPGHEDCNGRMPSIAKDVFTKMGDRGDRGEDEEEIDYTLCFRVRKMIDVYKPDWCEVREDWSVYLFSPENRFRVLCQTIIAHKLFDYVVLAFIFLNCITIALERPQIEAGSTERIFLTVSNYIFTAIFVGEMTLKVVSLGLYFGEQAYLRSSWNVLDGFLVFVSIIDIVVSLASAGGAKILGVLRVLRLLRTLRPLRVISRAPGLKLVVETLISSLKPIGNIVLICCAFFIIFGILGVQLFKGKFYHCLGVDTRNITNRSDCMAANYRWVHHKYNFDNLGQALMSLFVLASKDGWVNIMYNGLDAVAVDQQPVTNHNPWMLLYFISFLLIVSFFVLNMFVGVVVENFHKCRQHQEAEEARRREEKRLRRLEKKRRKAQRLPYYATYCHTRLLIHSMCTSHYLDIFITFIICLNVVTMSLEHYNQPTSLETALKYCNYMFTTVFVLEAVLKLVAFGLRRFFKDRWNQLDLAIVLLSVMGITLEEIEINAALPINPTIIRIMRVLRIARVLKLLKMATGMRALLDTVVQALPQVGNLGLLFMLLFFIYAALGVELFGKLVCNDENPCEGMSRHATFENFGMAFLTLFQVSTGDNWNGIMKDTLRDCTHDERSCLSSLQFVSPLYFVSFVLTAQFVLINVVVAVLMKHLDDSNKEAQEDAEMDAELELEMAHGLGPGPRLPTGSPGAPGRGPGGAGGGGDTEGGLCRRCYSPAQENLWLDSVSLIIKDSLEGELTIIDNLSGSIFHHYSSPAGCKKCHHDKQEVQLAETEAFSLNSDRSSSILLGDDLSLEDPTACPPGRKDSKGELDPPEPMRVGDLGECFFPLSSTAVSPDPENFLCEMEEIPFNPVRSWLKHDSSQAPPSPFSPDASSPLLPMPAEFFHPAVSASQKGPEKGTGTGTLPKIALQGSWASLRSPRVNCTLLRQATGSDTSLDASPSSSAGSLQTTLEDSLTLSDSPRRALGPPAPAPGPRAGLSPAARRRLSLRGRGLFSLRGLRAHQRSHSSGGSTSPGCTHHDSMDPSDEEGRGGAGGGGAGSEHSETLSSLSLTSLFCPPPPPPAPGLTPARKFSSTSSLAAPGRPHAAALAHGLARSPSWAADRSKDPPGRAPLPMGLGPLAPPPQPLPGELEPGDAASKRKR
CaV3.2, sequence (O95180 whole entry): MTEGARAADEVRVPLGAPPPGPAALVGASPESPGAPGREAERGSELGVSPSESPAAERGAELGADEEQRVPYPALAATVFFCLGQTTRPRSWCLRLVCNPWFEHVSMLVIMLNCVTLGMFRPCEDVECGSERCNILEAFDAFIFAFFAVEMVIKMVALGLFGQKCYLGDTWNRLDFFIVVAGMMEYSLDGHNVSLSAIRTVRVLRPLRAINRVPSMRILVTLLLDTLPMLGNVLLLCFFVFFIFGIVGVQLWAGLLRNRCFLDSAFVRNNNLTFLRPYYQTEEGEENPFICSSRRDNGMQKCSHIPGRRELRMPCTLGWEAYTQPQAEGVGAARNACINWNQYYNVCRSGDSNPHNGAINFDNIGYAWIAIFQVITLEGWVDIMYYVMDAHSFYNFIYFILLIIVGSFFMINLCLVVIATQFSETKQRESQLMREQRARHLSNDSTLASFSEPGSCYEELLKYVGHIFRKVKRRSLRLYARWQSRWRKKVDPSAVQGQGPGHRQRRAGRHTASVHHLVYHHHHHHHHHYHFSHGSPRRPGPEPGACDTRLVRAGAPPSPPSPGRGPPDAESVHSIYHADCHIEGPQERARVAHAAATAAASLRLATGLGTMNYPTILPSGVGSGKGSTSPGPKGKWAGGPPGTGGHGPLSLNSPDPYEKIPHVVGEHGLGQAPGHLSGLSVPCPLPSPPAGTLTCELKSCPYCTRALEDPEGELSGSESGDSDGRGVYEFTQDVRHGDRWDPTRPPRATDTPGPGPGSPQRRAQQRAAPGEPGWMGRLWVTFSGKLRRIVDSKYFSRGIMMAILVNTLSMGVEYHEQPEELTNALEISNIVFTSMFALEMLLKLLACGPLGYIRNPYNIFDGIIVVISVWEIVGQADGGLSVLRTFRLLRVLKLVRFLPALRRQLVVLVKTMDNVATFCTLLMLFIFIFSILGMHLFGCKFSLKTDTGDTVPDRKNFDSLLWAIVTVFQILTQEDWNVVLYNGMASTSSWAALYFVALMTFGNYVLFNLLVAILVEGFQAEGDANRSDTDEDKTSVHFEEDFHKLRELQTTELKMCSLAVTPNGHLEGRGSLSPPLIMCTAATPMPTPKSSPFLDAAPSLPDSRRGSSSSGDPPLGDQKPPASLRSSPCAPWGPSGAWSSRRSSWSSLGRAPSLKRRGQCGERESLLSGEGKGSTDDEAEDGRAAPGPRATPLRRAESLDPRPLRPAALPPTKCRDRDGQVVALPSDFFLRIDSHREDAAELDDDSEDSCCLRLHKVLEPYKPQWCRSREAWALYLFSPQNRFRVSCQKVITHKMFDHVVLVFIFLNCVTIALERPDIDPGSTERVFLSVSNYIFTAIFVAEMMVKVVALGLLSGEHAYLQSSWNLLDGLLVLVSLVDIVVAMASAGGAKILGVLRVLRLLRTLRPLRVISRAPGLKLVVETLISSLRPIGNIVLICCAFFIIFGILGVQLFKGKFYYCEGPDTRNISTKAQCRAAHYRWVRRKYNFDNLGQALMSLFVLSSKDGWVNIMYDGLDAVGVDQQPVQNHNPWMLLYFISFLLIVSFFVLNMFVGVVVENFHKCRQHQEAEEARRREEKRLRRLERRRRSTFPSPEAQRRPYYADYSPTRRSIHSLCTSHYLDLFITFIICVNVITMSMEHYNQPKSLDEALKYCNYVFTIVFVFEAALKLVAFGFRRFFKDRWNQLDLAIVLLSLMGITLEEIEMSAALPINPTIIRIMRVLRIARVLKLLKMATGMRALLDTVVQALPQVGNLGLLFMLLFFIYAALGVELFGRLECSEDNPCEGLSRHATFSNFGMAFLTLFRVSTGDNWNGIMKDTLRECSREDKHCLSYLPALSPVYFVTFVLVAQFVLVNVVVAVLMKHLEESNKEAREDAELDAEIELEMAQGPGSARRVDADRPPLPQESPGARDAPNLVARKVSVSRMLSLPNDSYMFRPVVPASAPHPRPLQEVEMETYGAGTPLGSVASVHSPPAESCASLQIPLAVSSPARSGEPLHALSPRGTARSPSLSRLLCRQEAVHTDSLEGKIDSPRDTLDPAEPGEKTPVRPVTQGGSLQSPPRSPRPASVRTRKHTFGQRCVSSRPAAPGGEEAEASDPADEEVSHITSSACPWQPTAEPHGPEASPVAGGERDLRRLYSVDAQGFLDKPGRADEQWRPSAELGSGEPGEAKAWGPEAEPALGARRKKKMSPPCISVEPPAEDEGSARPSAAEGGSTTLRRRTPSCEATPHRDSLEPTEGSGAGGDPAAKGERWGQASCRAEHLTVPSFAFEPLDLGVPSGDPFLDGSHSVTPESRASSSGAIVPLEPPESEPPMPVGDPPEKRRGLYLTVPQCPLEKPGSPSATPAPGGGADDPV

Kind of block of the CaV3.2 window current, in words ([1]; FLIPR): potent partial blocking | IC50 ([1]; FLIPR window current assay, HEK 293 stable, N = 3, mean ± SEM, read-out: IC50 CaV3.2 (LVA CaVs)): 6.59 ± 0.66 µM | Emax ([1]; FLIPR, n = 3, read-out: Emax, inhibition for CaV3.2): 56.9% | IC50 ([1]; FLIPR, representative curve, n = 4, read-out: IC50 of the representative concentration-response curve, CaV3.2 window current): 5.77 µM | IC50 ([2]; FLIPR window current assay, HEK 293 stable, N = 3, mean ± SEM, read-out: IC50 CaV3.3 (LVA CaVs)): 3.81 ± 1.08 µM | IC50 ([2]; FLIPR, representative curve, n = 4, read-out: IC50 of the representative concentration-response curve, CaV3.3 window current): 3.05 µM | Potency at CaV3.3 window current relative to potency at HVA CaVs ([2]; FLIPR, CaV3.3 better than HVA CaVs): > 8 fold | IC50 ([3]; FLIPR window current assay, transiently transfected HEK293T, N = 3, mean ± SEM, read-out: IC50 CaV3.1 (LVA CaVs)): 58.6 ± 2.62 µM | Emax ([3]; FLIPR, n = 3, read-out: Emax, inhibition for CaV3.1): 75.5%
SMILES: COC(=O)[C@H](Cc1c[nH]c2ccccc12)NC(=O)C(C)(c1c[nH]c2ccccc12)c1c[nH]c2ccccc12 [Compound 3, Methyl (2,2-di(1H-indol-3-yl)propanoyl)-L-tryptophanate]
